# Assay results reported in PMC5496796 (Clinical cancer research : an official journal of the …, 2017).
# Entries after “also recorded” stand apart in the source; their conditions may differ. Read-outs that look alike come from different tables or passages of the source.
# Assays:
# [1] = tablet form; ref [25]; cited from earlier work
# Plasma pharmacokinetics = format: in vivo, human
# [2] = tested on: relapsed or refractory multiple myeloma; assay: Treatment response by IMWG criteria, phase 1/2 trial; format: in vivo, human; conditions: single-agent ricolinostat
# [3] = tested on: patients with relapsed or refractory multiple myeloma
# [4] = tested on: acetylated histones (a substrate of class I HDACs); assay: Acetylated histones in CD3+ peripheral blood lymphocytes; format: in vivo, human; conditions: 1 hour after first dose
# [5] = tested on: acetylated tubulin (a substrate of HDAC6); conditions: for change in acetylated tubulin: 1 hour after first dose
# [6] = single agent ricolinostat, N=15
# [7] = single-agent ricolinostat, 15 patients
# [8] = single agent ricolinostat 160 mg
# [9] = single agent ricolinostat 240 mg
# [10] = initial 160 mg daily oral dose, cohort 4′, n=14, mean ± SD
structure (smiles),measurement,setting,value
O=C(CCCCCCNC(=O)c1cnc(N(c2ccccc2)c2ccccc2Cl)nc1)NO [ACY-241],exposure plateau,[1],does not exhibit the exposure plateau
"CC(C)C[C@H](NC(=O)[C@H](Cc1ccccc1)NC(=O)c1cnccn1)B(O)O [bortezomib, reference compound]",time of observed Cmax of bortezomib (first plasma sample),"Plasma pharmacokinetics; after i.v. injection, days 1 and 11, with few exceptions",15 min
same,Cmax,"Plasma pharmacokinetics; human, plasma, mean Cmax of bortezomib, day 1 dose, cohort 4′ ([…]^2 with ricolinostat 160 mg QD), n=14",24 ± 11 ng/mL
same,Cmax,"Plasma pharmacokinetics; human, plasma, mean Cmax of bortezomib, day 11 dose, cohort 4′ ([…]^2 with ricolinostat 160 mg QD), n=11",40 ± 15 ng/mL
O=C(CCCCCCNC(=O)c1cnc(N(c2ccccc2)c2ccccc2)nc1)NO [ricolinostat],"duration of stable disease, median","[2]; 6 patients, range 5 – 30",11 weeks
same,clinical response (minor or partial response),[2]; 15 patients,nor clinical responses; also recorded: no patients had a minor or partial response
same,patients with stable disease,[2]; of the 15 patients,6
same,"toxicity, overall",[3]; single agent ricolinostat therapy,neither significant toxicity
same,"Amylase elevation, All grades",[3]; [6],0 (0) N (%)
same,"Amylase elevation, Grade 3/4",[3]; [6],0 (0) N (%)
same,"Anemia, All grades",[3]; [6],3 (20) N (%)
same,"Anemia, Grade 3/4",[3]; [6],1 (7) N (%)
same,"Blood creatinine elevation, All grades",[3]; [6],5 (33) N (%)
same,"Blood creatinine elevation, Grade 3/4",[3]; [6],0 (0) N (%)
same,"Bronchitis, All grades",[3]; [6],0 (0) N (%)
same,"Bronchitis, Grade 3/4",[3]; [6],0 (0) N (%)
same,"Diarrhea, All grades",[3]; [6],3 (20) N (%)
same,"Dyspnea, All grades",[3]; [6],1 (7) N (%)
same,"Dyspnea, Grade 3/4",[3]; [6],0 (0) N (%)
same,"Fatigue, All grades",[3]; [6],4 (27) N (%)
same,"Febrile neutropenia, All grades",[3]; [6],0 (0) N (%)
same,"Febrile neutropenia, Grade 3/4",[3]; [6],0 (0) N (%)
same,"Hyperglycemia, All grades",[3]; [6],0 (0) N (%)
same,"Hyperglycemia, Grade 3/4",[3]; [6],0 (0) N (%)
same,"Hypertension, All grades",[3]; [6],0 (0) N (%)
same,"Hypertension, Grade 3/4",[3]; [6],0 (0) N (%)
same,"Hypokalemia, All grades",[3]; [6],1 (7) N (%)
same,"Hypokalemia, Grade 3/4",[3]; [6],0 (0) N (%)
same,"Hyponatremia, All grades",[3]; [6],1 (7) N (%)
same,"Hyponatremia, Grade 3/4",[3]; [6],0 (0) N (%)
same,"Hypophosphatemia, All grades",[3]; [6],2 (13) N (%)
same,"Hypophosphatemia, Grade 3/4",[3]; [6],1 (7) N (%)
same,"Influenza, All grades",[3]; [6],0 (0) N (%)
same,"Influenza, Grade 3/4",[3]; [6],0 (0) N (%)
same,"Nausea, All grades",[3]; [6],2 (13) N (%)
same,"Nausea, Grade 3/4",[3]; [6],0 (0) N (%)
same,"Neutropenia, All grades",[3]; [6],2 (13) N (%)
same,"Neutropenia, Grade 3/4",[3]; [6],1 (7) N (%)
same,"Peripheral neuropathy, All grades",[3]; [6],0 (0) N (%)
same,"Peripheral neuropathy, Grade 3/4",[3]; [6],0 (0) N (%)
same,"Pneumonia, All grades",[3]; [6],0 (0) N (%)
same,"Pneumonia, Grade 3/4",[3]; [6],0 (0) N (%)
same,"Pulmonary embolism, All grades",[3]; [6],0 (0) N (%)
same,"Pulmonary embolism, Grade 3/4",[3]; [6],0 (0) N (%)
same,"Thrombocytopenia, All grades",[3]; [6],2 (13) N (%)
same,"Thrombocytopenia, Grade 3/4",[3]; [6],2 (13) N (%)
same,"Transaminase elevation, All grades",[3]; [6],1 (7) N (%)
same,"Transaminase elevation, Grade 3/4",[3]; [6],0 (0) N (%)
same,"Vomiting, All grades",[3]; [6],0 (0) N (%)
same,"Vomiting, Grade 3/4",[3]; [6],0 (0) N (%)
same,dose limiting toxicities,"[3]; single-agent dose escalation, 40-360 mg daily",did not observe any dose limiting toxicities
same,maximum tolerated dose,"[3]; single-agent dose escalation, up to 360 mg qd",did not identify a maximum tolerated dose
same,"QT interval prolongation, serial triplicate electrocardiograms",[3]; single-agent ricolinostat,no evidence of QT interval prolongation
same,discontinuation because of a treatment emergent adverse event,[3]; single-agent ricolinostat,No patient discontinued
same,adverse events observed during therapy: anemia,[3]; [7],20%
same,adverse events observed during therapy: diarrhea,[3]; [7],20%
same,adverse events observed during therapy: fatigue,[3]; [7],27%
same,adverse events observed during therapy: renal insufficiency,[3]; [7],33%
same,change in histone acetylation,[4]; [8],unchanged
same,change in histone acetylation,[4]; [9],qualitative increase
same,"acetylated tubulin in peripheral blood lymphocytes, dose dependence",[5]; samples taken during therapy,dose-dependent increases
same,change in acetylated tubulin,[5]; [8],increase
same,change in acetylated tubulin,[5]; [9],upward trend
same,drug accumulation upon repeated dosing,Plasma pharmacokinetics; bid dosing,1.01 ± 0.26
same,Cmax,"Plasma pharmacokinetics; human, plasma, oral, mean Cmax on day 11, bid administration, n=10",524 ± 150 ng/mL
same,Cmax,"Plasma pharmacokinetics; human, plasma, oral, mean Cmax on day 11, qd dosing, n=11",648 ± 200 ng/mL
same,half-life,"Plasma pharmacokinetics; human, plasma, po, 160 mg",3.26 ± 0.46 h
same,apparent oral clearance,Plasma pharmacokinetics; [10],111 ± 25 L/h
same,apparent oral total body volume of distribution,Plasma pharmacokinetics; [10],521 ± 166 L
same,dose dependence of exposure (Cmax),"Plasma pharmacokinetics; oral 40 to 360 mg, alone or with bortezomib",plateau in exposure at dose levels ≥160 mg; also recorded: no significant increase at doses greater than 160 mg
same,median time of maximum observed concentration in plasma (Cmax),"Plasma pharmacokinetics; oral, initial dose and dose on day 11, range 0.25–2.0 hours",1.0 h
same,drug accumulation upon repeated dosing,Plasma pharmacokinetics; qd dosing,1.10 ± 0.20
